Among the data in ChEMBL document CHEMBL1139310, “Lead identification to generate 3-cyanoquinoline inhibitors of insulin-like growth factor receptor (IGF-1R) for potential use in cancer treatment” (Bioorg Med Chem Lett, 2009) are IC50, Ratio IC50 and solubility values, retold here.

Values after ≈ are worked out from the molar mass of the structure shown.

In series [1] the target is Insulin-like growth factor 1 receptor (Homo sapiens, UniProt P08069). Put plainly: Inhibition of GST-IGF1R.
A short description of series [2]: Selectivity ratio of IC50 for GST-IR to IC50 for GST-IGF1R.
Series [3] is described as follows: Aqueous solubility at pH 7.4. It counts as physicochemical.

Sequence of Insulin-like growth factor 1 receptor (P08069 31-736 limits assumed): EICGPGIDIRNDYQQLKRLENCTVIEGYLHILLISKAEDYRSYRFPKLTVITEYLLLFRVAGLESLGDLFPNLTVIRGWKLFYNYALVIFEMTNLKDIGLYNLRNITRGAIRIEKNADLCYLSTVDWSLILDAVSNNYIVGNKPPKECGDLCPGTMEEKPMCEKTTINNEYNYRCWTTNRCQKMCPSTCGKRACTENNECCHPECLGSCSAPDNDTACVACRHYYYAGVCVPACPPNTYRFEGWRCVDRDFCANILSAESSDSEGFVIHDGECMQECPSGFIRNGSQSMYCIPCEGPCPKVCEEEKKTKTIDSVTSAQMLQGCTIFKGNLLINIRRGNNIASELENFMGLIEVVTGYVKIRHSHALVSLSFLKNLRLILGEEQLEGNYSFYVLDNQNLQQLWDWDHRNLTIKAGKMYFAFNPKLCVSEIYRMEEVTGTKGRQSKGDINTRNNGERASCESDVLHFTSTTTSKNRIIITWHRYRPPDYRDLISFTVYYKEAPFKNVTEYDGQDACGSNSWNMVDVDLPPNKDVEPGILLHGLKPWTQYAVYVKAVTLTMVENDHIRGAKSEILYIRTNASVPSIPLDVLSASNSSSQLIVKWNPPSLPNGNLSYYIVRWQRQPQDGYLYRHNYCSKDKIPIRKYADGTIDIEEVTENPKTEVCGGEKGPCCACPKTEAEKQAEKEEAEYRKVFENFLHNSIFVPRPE
Sequence of Insulin-like growth factor 1 receptor (P08069 741-1367 limits assumed): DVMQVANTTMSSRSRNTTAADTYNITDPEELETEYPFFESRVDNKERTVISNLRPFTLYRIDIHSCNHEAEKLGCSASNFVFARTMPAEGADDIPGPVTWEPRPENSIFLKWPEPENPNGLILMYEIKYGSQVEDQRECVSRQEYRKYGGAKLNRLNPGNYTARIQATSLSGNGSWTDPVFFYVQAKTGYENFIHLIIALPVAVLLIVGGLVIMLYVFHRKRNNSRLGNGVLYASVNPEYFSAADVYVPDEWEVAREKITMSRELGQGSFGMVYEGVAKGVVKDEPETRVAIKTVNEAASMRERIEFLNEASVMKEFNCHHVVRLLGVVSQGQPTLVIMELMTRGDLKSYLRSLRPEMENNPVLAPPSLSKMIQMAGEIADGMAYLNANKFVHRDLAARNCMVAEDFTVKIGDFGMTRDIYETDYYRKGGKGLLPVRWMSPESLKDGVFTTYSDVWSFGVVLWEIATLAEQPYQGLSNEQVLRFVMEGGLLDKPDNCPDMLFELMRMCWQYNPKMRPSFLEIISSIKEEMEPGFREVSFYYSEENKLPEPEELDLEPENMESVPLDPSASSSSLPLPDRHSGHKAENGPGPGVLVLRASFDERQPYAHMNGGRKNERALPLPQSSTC

On to `CCn1c(Sc2ccc(Nc3c(C#N)cnc4cc(NCCCc5ccccc5)c(OC)cc34)cc2Cl)nc(C)c1C`, for which, in series [1], the midpoint of inhibition, the IC50, lay at 13700 nM.

On to `CCn1c(Sc2ccc(Nc3c(C#N)cnc4cc(NCCCN5CCN(C)CC5)c(OC)cc34)cc2Cl)nc(C)c1C`, for which, in series [1], the IC50 came to 16 nM.

On to `CCn1c(Sc2ccc(Nc3c(C#N)cnc4cc(OCCCNS(C)(=O)=O)c(OC)cc34)cc2Cl)nc(C)c1C`, for which the IC50 in series [1] came to 31 nM.

For `CCN1CCN(CCCOc2cc3ncc(C#N)c(Nc4ccc(Sc5nc(C)c(C)n5CC)c(Cl)c4)c3cc2OC)CC1`, the Ratio IC50 in series [2] was determined as 0.17. The half-inhibitory concentration (IC50) in series [1] came out at 9 nM. Moreover, the solubility in series [3] turned out to be 2000 µg/mL (≈ 3.15 mM).

In series [1], `COc1cc2c(Nc3ccc(Sc4nccn4C)c(Cl)c3)c(C#N)cnc2cc1N1CCN(C)CC1` registered a half-inhibitory concentration (IC50) of 600 nM.

In series [1], `CCn1c(Sc2ccc(Nc3c(C#N)cnc4cc(NCCCN5CCOCC5)c(OC)cc34)cc2Br)nc(C)c1C` registered a half-inhibitory concentration (IC50) of 20 nM.

Compound `CCOC(=O)NN1CCN(CCCOc2cc3ncc(C#N)c(Nc4ccc(Sc5nc(C)c(C)n5CC)c(Cl)c4)c3cc2OC)CC1` came in with an IC50 in series [1] of 17 nM.

In series [1], `CCn1c(Sc2ccc(Nc3c(C#N)cnc4cc(NCCCN(CCO)CCO)c(OC)cc34)cc2Cl)nc(C)c1C` came in with an IC50 of 26 nM.

As for `COc1cc2c(Nc3ccc(Sc4nccn4C)c(Cl)c3)c(C#N)cnc2cc1N(C)CCCN(C)C`, the IC50 in series [1] amounted to 150 nM.

For the compound `COc1cc2c(Nc3ccc(Sc4nccn4C)c(Cl)c3)c(C#N)cnc2cc1OCCCN1CCOCC1`, the IC50 in series [1] worked out at 66 nM. This IC50 lies about 2.3-fold lower than the previous one.

Compound `COc1cc2c(Nc3ccc(Sc4nccn4C)c(Cl)c3)c(C#N)cnc2cc1NCCCN(C)C` came in with an IC50 in series [1] of 151 nM.

In series [1], `CCC(=O)C1CCN(CCCOc2cc3ncc(C#N)c(Nc4ccc(Sc5nc(C)c(C)n5CC)c(Cl)c4)c3cc2OC)CC1` returned an IC50 of 135 nM.

In series [1], `COc1cc2c(Nc3ccc(Sc4ccccn4)c(Cl)c3)c(C#N)cnc2cc1OCCCN1CCOCC1` registered an IC50 above 10000 nM.

With `COc1cc2c(Nc3ccc(Sc4ccccc4O)cc3)c(C#N)cnc2cc1OCCCN1CCOCC1`, the IC50 in series [1] worked out at 1090 nM.

Compound `CCNC(=O)N1CCN(CCCOc2cc3ncc(C#N)c(Nc4ccc(Sc5nc(C)c(C)n5CC)c(Cl)c4)c3cc2OC)CC1` yielded an IC50 in series [1] of 45 nM.

In series [1], `COc1cc2c(Nc3ccc(Sc4nccn4C)cc3)c(C#N)cnc2cc1OCCCN1CCOCC1` registered a half-maximal inhibitory concentration (IC50) of 1000 nM.

`CCn1c(Sc2ccc(Nc3c(C#N)cnc4cc(OCCCN5CCOCC5)c(OC)cc34)cc2Cl)nc(C)c1C`: in series [1], the 50% inhibitory concentration (IC50) amounted to 15 nM.

In the case of `CCC1CCCCN1CCCOc1cc2ncc(C#N)c(Nc3ccc(Sc4nc(C)c(C)n4CC)c(Cl)c3)c2cc1OC` (stereo not given), the 50% inhibitory concentration (IC50) in series [1] was 32 nM. Compared with the last compound, the IC50 is about 2.1-fold higher.
